Data on one compound can be found in patent US20050175599A1, “Process for producing substance” (Kyowa Hakko Kogyo Co., Ltd., priority 2001, published 2005).

Assay [1] concerns transformant cell line 61-33γ (host YB2/0) producing a chimeric anti-GD3 antibody. As to the kind of experiment: Batch culture of antibody-producing cells in Q10-containing serum-free medium (Example 1). Type of assay: cell-based, rat. The note with it: Q10-added culture, 500 μM Q10 (added as SANOMIT), batch culture 6 days. The protocol: The following batch culture was performed with transformant cell line 61-33γ (FERM BP-7325, WO 01/29246) which was obtained by using hybridoma cell line YB2/0 derived from a rat myeloma cell line as a host cell and produces a chimeric anti-GD3 antibody. […]
From the start to the completion of culturing, the liquid culture was sampled once a day, to assay the viable cell density (cells/mL) and the antibody concentration (μg/mL) respectively. Further, the viable cell density was measured by a dye-exclusion method using 0.4% trypan blue solution.
The cumulative number of viable cells is shown as the total sum of the viable cell density multiplied by the time as elapsed. In the present Example, the viable cell density was measured once a day, and the cumulative number of viable cells was shown as value of the additive sum of the individual viable cell densities measured each time (cells/mL×days).
Additionally, the specific antibody production rate and the relative specific antibody production rate were calculated respectively by the following equations. […]

Assay [2] has as its system transformant cell line NS0/LCA-CCR4 producing chimeric anti-CCR4 antibody. Briefly: Batch culture of antibody-producing cells in Q10-containing serum fraction-added medium (Example 4). Type of assay: cell-based, mouse. As to conditions: 100 μmol/L Q10 (added as SANOMIT), 4th day. Here is the method:
The batch culture was performed using transformant cell line NS0/LCA-CCR4 (FERM BP-7964) producing chimeric anti-CCR4 antibody as prepared in Reference Example 1. […]
The cumulative number of viable cells is shown as the total sum of the viable cell density multiplied by the time as elapsed. In the present Example, as the viable cell density was measured once, the cumulative number of viable cells was calculated by the following equation as a trapezoidal area formed by the change of the cell density with time related to the inoculated cell density and the measured cell density. Cumulative number of viable cells (cells/mL×days)=(inoculated cell density+measured cell density)×time as elapsed÷2
The specific antibody production rate and the relative specific antibody production rate were calculated respectively by the method described in Example 1.
(3) Quantitative Determination of an Antibody in a Culture Supernatant by IgG-ELISA
The concentration of chimeric anti-CCR4 antibody in the culture supernatant was measured as follows. […]

With `COC1=C(OC)C(=O)C(C/C=C(\C)CC/C=C(\C)CC/C=C(\C)CC/C=C(\C)CC/C=C(\C)CC/C=C(\C)CC/C=C(\C)CC/C=C(\C)CC/C=C(\C)CCC=C(C)C)=C(C)C1=O` [Q10], the entries for the “cumulative number of cells on the completion of culturing” value in assay [1] (Q10-free culture 1.71×10^7) and in assay [2] (Q10-free culture 1.59×10^6) were 1.51×10^7 cells/mL×days and 1.34×10^6 cells/mL×days, respectively. The “relative specific antibody production rate” value in assay [1] (Q10-free culture = 100%) amounted to 166.3%; in assay [2] (Q10-free culture = 100%) it was 131.9%.
